From ChEMBL document CHEMBL4673241, “Cannabitwinol, a Dimeric Phytocannabinoid from Hemp, Cannabis sativa L., Is a Selective Thermo-TRP Modulator” (J Nat Prod, 2020)
pEC50, pIC50: −log10 of the molar value.

Legend:
Type in all cases: cell-based
[1] = biological target: T1, Transient receptor potential cation channel subfamily V member 2 (Rattus norvegicus, UniProt Q9WUD2); assay: Agonist activity at rat TRPV2 stably transfected in HEK293 cells assessed as increase in calcium influx in presence of ionomycin by Fluo-4-AM dye based spectrofluorimetric method
T1 sequence (Q9WUD2 whole entry): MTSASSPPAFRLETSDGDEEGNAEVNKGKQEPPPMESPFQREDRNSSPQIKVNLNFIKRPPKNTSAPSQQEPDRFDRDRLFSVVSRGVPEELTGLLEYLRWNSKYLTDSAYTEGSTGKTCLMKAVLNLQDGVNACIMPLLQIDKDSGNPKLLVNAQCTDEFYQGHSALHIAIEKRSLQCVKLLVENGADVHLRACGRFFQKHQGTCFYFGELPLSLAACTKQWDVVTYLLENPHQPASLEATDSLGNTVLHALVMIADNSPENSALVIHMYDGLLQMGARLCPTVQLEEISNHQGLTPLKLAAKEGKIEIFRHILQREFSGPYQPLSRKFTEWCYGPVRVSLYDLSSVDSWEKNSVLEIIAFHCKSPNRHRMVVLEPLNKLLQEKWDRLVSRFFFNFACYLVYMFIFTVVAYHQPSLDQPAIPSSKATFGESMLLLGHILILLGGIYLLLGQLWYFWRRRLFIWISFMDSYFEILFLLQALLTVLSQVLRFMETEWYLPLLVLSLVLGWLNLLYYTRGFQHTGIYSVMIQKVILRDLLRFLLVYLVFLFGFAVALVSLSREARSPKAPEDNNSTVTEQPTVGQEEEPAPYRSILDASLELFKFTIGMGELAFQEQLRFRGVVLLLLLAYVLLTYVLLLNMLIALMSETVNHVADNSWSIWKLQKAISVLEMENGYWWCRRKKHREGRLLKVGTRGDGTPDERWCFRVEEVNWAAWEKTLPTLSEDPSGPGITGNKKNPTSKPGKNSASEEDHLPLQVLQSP

[2] = biological target: Transient receptor potential cation channel subfamily A member 1 (Rattus norvegicus) (UniProt Q6RI86); assay: Agonist activity at rat TRPA1 stably transfected in HEK293 cells assessed as increase in calcium influx by Fluo-4-AM dye based spectrofluorimetric method relative to allylisothiocyanate; details: filed as agonist
Chain of Transient receptor potential cation channel subfamily A member 1 (Rattus norvegicus) (Q6RI86 whole entry): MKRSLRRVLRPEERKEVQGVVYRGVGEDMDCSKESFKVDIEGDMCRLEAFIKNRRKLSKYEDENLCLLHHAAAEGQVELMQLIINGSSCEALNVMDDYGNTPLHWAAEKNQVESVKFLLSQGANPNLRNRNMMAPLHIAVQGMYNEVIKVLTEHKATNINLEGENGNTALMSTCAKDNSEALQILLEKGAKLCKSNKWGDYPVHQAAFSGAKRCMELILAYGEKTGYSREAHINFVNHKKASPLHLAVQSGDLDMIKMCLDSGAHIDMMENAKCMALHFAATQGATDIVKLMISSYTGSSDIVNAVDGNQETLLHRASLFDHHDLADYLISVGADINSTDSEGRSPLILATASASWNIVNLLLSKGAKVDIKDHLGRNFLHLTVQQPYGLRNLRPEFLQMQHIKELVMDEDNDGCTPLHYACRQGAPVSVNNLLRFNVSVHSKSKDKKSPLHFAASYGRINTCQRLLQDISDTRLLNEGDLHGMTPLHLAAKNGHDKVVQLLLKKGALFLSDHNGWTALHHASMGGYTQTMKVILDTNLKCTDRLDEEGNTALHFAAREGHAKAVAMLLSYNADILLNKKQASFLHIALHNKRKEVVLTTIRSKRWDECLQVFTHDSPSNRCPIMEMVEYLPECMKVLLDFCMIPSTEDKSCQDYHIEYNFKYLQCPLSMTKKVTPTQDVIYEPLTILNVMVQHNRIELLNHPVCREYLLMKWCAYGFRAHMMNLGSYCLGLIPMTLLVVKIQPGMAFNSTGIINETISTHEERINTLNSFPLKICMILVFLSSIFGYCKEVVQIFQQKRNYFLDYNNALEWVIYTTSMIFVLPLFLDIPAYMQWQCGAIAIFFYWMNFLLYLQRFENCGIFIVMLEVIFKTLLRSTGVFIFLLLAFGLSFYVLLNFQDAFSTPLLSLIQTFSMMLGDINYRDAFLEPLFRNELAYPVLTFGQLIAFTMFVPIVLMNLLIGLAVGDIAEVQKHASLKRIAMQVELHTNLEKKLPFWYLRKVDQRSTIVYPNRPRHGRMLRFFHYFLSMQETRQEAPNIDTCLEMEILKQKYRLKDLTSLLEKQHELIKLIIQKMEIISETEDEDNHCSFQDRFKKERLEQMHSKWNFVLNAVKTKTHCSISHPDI

[3] = biological target: T2, Heat sensitive channel TRPV3 (Rattus norvegicus, UniProt Q4QYD9); assay: Antagonist activity at rat TRPV3 expressed in HEK293 cells assessed as inhibition of thymol-induced Ca2+ response preincubated for 5 mins followed by thymol addition by Fluo-4AM dye based fluorescence assay
T2 sequence (Q4QYD9 whole entry): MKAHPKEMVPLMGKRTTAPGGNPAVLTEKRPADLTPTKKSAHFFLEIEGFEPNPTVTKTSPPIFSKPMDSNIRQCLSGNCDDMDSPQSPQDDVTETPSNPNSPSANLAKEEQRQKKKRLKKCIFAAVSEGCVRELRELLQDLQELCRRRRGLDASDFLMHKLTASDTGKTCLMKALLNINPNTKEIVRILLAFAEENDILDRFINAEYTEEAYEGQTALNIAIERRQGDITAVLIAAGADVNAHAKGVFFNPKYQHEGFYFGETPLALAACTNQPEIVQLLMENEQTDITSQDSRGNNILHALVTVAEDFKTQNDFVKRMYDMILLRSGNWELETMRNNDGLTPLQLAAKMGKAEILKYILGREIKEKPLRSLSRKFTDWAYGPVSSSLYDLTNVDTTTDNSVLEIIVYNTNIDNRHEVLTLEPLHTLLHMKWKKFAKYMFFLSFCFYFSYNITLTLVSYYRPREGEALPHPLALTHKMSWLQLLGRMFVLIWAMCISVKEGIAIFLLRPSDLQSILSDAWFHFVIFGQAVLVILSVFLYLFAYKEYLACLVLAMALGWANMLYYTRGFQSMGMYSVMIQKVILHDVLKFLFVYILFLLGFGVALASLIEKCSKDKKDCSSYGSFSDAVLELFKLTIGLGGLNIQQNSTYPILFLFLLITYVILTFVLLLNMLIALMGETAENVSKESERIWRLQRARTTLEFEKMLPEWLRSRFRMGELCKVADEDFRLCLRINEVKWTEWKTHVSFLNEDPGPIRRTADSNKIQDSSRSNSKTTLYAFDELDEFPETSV

[4] = biological target: T3, Transient receptor potential cation channel subfamily A member 1 (Rattus norvegicus, UniProt Q6RI86); assay: Agonist activity at rat TRPA1 stably transfected in HEK293 cells assessed as increase in calcium influx in presence of allylisothiocyanate by Fluo-4-AM dye based spectrofluorimetric method
T3 sequence (Q6RI86 whole entry): as the sequence (Q6RI86 whole entry) above

[5] = biological target: T1, Transient receptor potential cation channel subfamily V member 2; assay: Antagonist activity at rat TRPV2 expressed in HEK293 cells assessed as inhibition of LPC-induced Ca2+ response preincubated for 5 mins followed by LPC addition by Fluo-4AM dye based fluorescence assay
[6] = biological target: T3, Transient receptor potential cation channel subfamily A member 1; assay: Antagonist activity at rat TRPA1 expressed in HEK293 cells assessed as inhibition of allylisothiocyanate-induced Ca2+ response preincubated for 5 mins followed by allylisothiocyanate addition by Fluo-4AM dye based fluorescence assay
[7] = biological target: T4, Transient receptor potential cation channel subfamily V member 1 (Homo sapiens, UniProt Q8NER1); assay: Agonist activity at human TRPV1 stably transfected in HEK293 cells assessed as increase in calcium influx in presence of ionomycin by Fluo-4-AM dye based spectrofluorimetric method
T4 sequence (Q8NER1 whole entry): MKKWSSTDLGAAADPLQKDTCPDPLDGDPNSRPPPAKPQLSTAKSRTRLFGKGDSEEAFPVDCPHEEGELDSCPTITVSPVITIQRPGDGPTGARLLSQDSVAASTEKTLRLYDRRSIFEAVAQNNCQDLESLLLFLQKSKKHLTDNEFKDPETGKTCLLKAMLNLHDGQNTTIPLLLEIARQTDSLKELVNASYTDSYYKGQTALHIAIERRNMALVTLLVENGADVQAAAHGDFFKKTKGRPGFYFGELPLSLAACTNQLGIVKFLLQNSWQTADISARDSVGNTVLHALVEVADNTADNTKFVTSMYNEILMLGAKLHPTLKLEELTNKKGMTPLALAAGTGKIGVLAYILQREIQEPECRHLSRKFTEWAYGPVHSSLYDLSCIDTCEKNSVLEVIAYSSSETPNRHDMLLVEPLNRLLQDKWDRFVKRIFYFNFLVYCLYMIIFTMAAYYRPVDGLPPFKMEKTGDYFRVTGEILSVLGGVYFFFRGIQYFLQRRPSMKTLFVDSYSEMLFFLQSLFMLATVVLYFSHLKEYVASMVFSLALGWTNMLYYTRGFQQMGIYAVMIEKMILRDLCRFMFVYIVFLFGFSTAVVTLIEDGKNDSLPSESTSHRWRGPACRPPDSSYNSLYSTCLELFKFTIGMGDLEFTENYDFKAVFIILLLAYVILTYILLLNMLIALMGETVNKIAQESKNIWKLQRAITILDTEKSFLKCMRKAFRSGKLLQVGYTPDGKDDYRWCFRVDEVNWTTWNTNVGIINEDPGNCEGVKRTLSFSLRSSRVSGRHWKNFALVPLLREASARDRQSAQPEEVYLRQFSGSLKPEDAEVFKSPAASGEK

[8] = biological target: Transient receptor potential cation channel subfamily M member 8 (Rattus norvegicus, UniProt Q8R455); assay: Antagonist activity at rat TRPM8 expressed in HEK293 cells assessed as inhibition of icilin-induced Ca2+ response preincubated for 5 mins followed by icilin addition by Fluo-4AM dye based fluorescence assay
Chain of Transient receptor potential cation channel subfamily M member 8 (Q8R455 whole entry): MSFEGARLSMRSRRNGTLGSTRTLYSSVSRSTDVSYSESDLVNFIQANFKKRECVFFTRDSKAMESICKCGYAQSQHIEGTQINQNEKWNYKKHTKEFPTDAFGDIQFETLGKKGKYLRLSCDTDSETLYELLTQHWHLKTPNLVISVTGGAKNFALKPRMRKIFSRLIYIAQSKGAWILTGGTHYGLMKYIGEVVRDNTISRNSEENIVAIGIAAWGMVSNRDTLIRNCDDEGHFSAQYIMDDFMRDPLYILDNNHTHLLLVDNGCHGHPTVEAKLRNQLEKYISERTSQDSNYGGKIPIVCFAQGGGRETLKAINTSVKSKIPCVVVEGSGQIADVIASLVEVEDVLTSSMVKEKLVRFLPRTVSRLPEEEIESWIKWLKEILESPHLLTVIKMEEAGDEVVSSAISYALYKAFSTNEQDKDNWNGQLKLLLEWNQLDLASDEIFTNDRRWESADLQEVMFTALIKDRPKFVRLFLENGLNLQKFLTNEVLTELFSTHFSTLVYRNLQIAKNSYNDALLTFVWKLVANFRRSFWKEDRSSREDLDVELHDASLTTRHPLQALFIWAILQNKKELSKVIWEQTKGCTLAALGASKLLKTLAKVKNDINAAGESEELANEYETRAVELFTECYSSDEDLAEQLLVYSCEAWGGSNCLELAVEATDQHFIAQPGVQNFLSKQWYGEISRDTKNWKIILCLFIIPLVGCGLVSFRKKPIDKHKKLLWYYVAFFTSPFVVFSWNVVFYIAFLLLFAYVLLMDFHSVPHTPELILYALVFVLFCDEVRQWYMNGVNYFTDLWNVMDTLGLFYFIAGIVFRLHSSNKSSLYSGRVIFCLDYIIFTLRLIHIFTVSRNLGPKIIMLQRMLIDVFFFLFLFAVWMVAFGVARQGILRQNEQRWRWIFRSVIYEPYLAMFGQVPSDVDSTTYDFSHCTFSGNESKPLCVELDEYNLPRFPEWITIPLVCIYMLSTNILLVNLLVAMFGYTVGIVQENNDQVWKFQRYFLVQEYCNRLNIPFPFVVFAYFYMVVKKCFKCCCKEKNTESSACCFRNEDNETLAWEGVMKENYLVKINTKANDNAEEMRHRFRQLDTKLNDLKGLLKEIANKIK

[9] = biological target: T5, Transient receptor potential cation channel subfamily V member 4 (Rattus norvegicus, UniProt Q9ERZ8); assay: Antagonist activity at rat TRPV4 expressed in HEK293 cells assessed as inhibition of GSK1016790A-induced Ca2+ response preincubated for 5 mins followed by GSK1016790A addition by Fluo-4AM dye based fluorescence assay
T5 sequence (Q9ERZ8 whole entry): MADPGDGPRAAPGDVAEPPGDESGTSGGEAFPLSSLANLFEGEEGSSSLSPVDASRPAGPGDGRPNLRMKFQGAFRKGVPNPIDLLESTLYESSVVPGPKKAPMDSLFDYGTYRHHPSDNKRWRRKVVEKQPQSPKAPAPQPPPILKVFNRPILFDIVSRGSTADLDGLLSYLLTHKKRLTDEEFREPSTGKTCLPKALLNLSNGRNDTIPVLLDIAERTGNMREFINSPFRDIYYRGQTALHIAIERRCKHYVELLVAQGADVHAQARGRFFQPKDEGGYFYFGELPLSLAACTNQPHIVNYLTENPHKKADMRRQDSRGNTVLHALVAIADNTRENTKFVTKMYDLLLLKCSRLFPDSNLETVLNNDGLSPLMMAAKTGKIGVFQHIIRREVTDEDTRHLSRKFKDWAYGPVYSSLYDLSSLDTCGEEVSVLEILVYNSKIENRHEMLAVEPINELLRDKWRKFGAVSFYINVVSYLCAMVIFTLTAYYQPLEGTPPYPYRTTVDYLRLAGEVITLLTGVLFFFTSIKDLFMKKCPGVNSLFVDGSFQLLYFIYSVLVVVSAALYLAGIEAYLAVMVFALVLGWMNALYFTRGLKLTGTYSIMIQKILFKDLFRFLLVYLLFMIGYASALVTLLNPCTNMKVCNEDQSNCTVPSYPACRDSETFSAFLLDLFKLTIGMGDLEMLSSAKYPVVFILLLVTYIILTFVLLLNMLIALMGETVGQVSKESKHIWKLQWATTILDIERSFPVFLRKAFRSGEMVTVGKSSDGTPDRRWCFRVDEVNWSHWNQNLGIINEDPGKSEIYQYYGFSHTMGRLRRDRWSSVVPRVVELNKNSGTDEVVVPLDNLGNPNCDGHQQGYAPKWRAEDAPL

[10] = biological target: Transient receptor potential cation channel subfamily V member 4 (Rattus norvegicus) (UniProt Q9ERZ8); assay: Agonist activity at rat TRPV4 stably transfected in HEK293 cells assessed as increase in calcium influx by Fluo-4-AM dye based spectrofluorimetric method relative to ionomycin
Chain of Transient receptor potential cation channel subfamily V member 4 (Rattus norvegicus) (Q9ERZ8 whole entry): as above

[11] = biological target: T5, Transient receptor potential cation channel subfamily V member 4; assay: Agonist activity at rat TRPV4 stably transfected in HEK293 cells assessed as increase in calcium influx in presence of ionomycin by Fluo-4-AM dye based spectrofluorimetric method
[12] = biological target: T6, Heat sensitive channel TRPV3 (Rattus norvegicus) (UniProt Q4QYD9); assay: Agonist activity at rat TRPV3 stably transfected in HEK293 cells assessed as increase in calcium influx by Fluo-4-AM dye based spectrofluorimetric method relative to ionomycin; details: filed as agonist
T6 sequence (whole entry): T2 sequence (Q4QYD9 whole entry)

[13] = biological target: T4, Transient receptor potential cation channel subfamily V member 1; assay: Agonist activity at human TRPV1 stably transfected in HEK293 cells assessed as increase in calcium influx by Fluo-4-AM dye based spectrofluorimetric method relative to ionomycin
[14] = biological target: T7, Transient receptor potential cation channel subfamily V member 2 (Rattus norvegicus) (UniProt Q9WUD2); assay: Agonist activity at rat TRPV2 stably transfected in HEK293 cells assessed as increase in calcium influx by Fluo-4-AM dye based spectrofluorimetric method relative to ionomycin
T7 sequence (whole entry): T1 sequence (Q9WUD2 whole entry)

[15] = biological target: T2, Heat sensitive channel TRPV3; assay: Agonist activity at rat TRPV3 stably transfected in HEK293 cells assessed as increase in calcium influx in presence of ionomycin by Fluo-4-AM dye based spectrofluorimetric method
[16] = biological target: T4, Transient receptor potential cation channel subfamily V member 1; assay: Antagonist activity at human TRPV1 expressed in HEK293 cells assessed as inhibition of capsaicin-induced Ca2+ response preincubated for 5 mins followed by capsaicin addition by Fluo-4AM dye based fluorescence assay

Row | SMILES | EC50 ([1]; hek293) | Efficacy [2] [%] | pIC50 [3] | pEC50 [4] | pIC50 [5] | pIC50 [6] | pEC50 [7] | pIC50 [8] | pIC50 [9] | Efficacy [10] [%] | pEC50 [11] | Efficacy [12] [%] | Efficacy [13] [%] | Efficacy [14] [%] | pEC50 [15] | pIC50 [16] | pEC50 ([1]; read-out: EC50) | Efficacy ([13]; filed as agonist) [%] | Efficacy ([14]; filed as agonist) [%]
1 | C=C(C)[C@@H]1CCC(C)=C[C@H]1c1c(O)cc(CCCCC)c(Cc2c(CCCCC)cc(O)c([C@@H]3C=C(C)CC[C@H]3C(=C)C)c2O)c1O | Not Active | 96.7 | 4.93 | 5.52 | < 4.70 | 5.31 | 5.35 | 5.41 | < 4.70 | 10.6 | 5.21 | 66.5 | 12.3 | < 10 | 5.34 | < 4.70 | – | – | –
2 | C=C(C)[C@@H]1CCC(C)=C[C@H]1c1c(O)cc(CCCCC)cc1O [CANNABIDIOL] | – | 109 | 6.12 | 6.32 | 5.96 | 6.35 | 5.39 | 5.55 | 5.23 | 15.2 | 6.05 | 53.6 | – | – | 6.29 | 5.43 | 5.92 | 78.4 | 67.5
